Data as given in patent publication US20030186941A1, “Cyclopenteneone derivatives” (priority 1999, published 2003).
Where two headings read alike, the source gives them in different places.

How the values were obtained:
[1] = tested on: parainfluenza Sendai virus (SV); assay: microbe, parasite or virus in culture; type: cell-based; conditions: for inhibition of Sendai virus replication: 37RC cells, virus yield at 24 hours after infection; for IC50: Respirovirus muris
NF-κB [2] = biological target: T1, NF-κB (Homo sapiens, UniProt Q04206); assay: EMSA of NF-κB DNA-binding activity in TPA-stimulated Jurkat T cells; type: cell-based; set-up: endogenous in cells; host or cells: Jurkat T cells (human lymphoblastoid), TPA-stimulated; whole-cell extracts; conditions: test compound 1 hour then TPA 25 ng/ml, extracts after 3 hours
Protocol: Methods: Human lymphoblastoid Jurkat T cells were grown at 37° C. in a 5% CO2 atmosphere in RPM1 1640 medium (GIBCO BRL, Gaithersburg, Md.) supplemented with 10% fetal calf serum (FCS, Hyclone Europe Ltd, UK) 2 mM glutamine and antibiotics according to the method described by A. Rossi et al. (Proc. Natl. Acad. Sci. USA 94: 746-750, 1997). The test compounds were stored as a 100% ethanolic stock solution (100 mM) or in DMSO (100 mM and diluted to the appropriate concentration in culture medium at the time of use. Cells were treated with different concentrations of test compound for 1 hour and then stimulated with 12-O-tetradecanoylphorbol-13-acetate (TPA, 25 ng/ml), which is a strong inducer of NF-κB. Control cells received an equal amount of control diluent. After 3 hours whole-cell extracts were prepared and subjected to analysis of DNA-binding activity by EMSA (Electrophoretic Mobility Shift Assay) for detection of HSF or NF-κB activation, according to the method described by A. Rossi et al. (Proc. Natl. Acad. Sci. USA 94: 746-750, 1997).
Specificity of protein-DNA complexes was verified by immunoreactivity with polyclonal antibodies specific for p65 (Rel A) or for HSF-1, for NF-κB and HSF respectively. Quantitative evaluation of NF-κB- and HSF-DNA complex formation was determined by Molecular Dynamics Phosphorlmager (MDP) analysis and was expressed in arbitrary units, as described in A. Rossi et al.(J. Biol. Chem. 273: 16446-16452, 1998). The results from representative experiments are shown in FIGS. 1(b), 2(b), 3(b), 4(b), 5(b), 6 and 7(b) for compounds CTC-31, CTC-32, CTC-33, CTC-34, CTC-35, CTC-36 and CTC-45, as identified above.

37RC cells [3] = assay: Toxicity to uninfected 37RC cells, determined visually by microscopy; type: cell-based, Monkey
[4] = tested on: Herpes simplex virus type one (HSV-1), strain F; assay: HSV-1 replication in Hep-2 cells, virus titre by CPE 50% assay on VERO cells; type: cell-based, Herpes simplex virus type 1; conditions: Human alphaherpesvirus 1, HEp-2, 24 h, read-out: ID50 (50% inhibitory dose/concentration), HSV-1 virus replication
Protocol: Methods: Human Hep-2 laryngeal carcinoma cells and monkey VERO cells were grown at 37° C. under the conditions described in Example 9 for T cells. Cell viability was determined by dye exclusion technique or by 3-(4,5-dimethylthiazol-2-yl)-2,5-diphenyl-tetrazolium bromide (MTT, Sigma Chemical Co.) to MTT formazan assay, as described by F. Denizot and R. Lang (J. Immunol. Methods 89: 271-277, 1986). Herpes simplex virus type one (HSV-1), strain F grown in VERO cells, was used at a multiplicity of infection of 10 plaque forming units (PFU) per cell. Confluent Hep-2 cell monolayers were infected with HSV-1 for 1 h at 37° C. After this time, virus inocula were removed and cells incubated in RPMI 1640 medium containing 2% FCS. Different concentrations of CTC-35 were added to the culture after the 1 h adsorption period, and maintained in the medium for the duration of the experiment. […] HSV-1 virus titres were determined 24 hours after infection by cytopathic effect 50% (CPE 50%) assay on confluent VERO cells monolayers in 96-well tissue culture plates (six dilutions for each sample, eight wells for each dilution), as described by F. Pica et al. (Antiviral Res. 20: 193-208, 1993). The dilution that gives 50% cytopathic effect were determined by the interpolating procedure of Reed and Muensch, as described by E. Rodriguez-Boulan Methods Enzymol. 98: 486-501, 1983).

37RC cells [5] = assay: MTT cell viability assay, uninfected 37RC cells; type: cell-based, Monkey; conditions: 24 hours
Protocol: (§1) Cell viability was determined by the 3-(4,5-dimethylthiazol-2-yl)-2,5-diphenyltetrazolium bromide MIT) assay. Uninfected A549 (7.5×10^4 cells/well in 96 well plates) or 37RC cells (2.5×10^4 cells/well in 96 well plates) were treated with different concentrations of CTC35 or ethanol diluent for 24 hours. After this time, […] of a 0.5% MIT solution in PBS was added to the monolayers and the mixture was incubated for 2 h at 37° C. Reduced MTT (formazan) was extracted from cells by adding 100 μl of acidic isopropanol containing 10% Triton X-100, and formazan absorbance was measured in an ELISA microplate reader at two different wavelengths (540 and 690 nm).

A549 cells = assay: MTT cell viability assay, uninfected A549 cells; type: cell-based, Human; conditions: 24 hours
Protocol: as §1

[6] = anaesthetized rat, intravenous infusion, doses from 30 μg/kg/min; cited from earlier work
NF-κB [7] = biological target: T1, NF-κB; conditions: at a concentration of 125-500 μM; cited from earlier work
HSF1 = biological target: T2, HSF1 (Homo sapiens, UniProt Q00613); conditions: at a concentration of 125-500 μM; cited from earlier work
T2 sequence (Q00613 1-529): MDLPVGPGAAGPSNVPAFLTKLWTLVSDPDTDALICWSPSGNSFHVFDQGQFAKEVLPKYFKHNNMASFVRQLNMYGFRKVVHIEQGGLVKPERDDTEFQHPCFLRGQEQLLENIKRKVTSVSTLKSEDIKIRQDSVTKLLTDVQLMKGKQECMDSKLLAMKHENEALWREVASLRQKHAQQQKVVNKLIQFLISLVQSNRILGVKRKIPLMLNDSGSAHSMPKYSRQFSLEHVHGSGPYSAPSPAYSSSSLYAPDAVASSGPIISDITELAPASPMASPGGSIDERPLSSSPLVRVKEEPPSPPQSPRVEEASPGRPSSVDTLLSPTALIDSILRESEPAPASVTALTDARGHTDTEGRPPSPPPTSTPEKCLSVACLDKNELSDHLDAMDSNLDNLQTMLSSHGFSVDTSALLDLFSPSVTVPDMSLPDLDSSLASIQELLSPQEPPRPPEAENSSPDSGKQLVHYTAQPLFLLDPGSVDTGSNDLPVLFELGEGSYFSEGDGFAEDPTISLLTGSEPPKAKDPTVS

[8] = Sendai virus in 37RC cells, at 24 hours, read-out: ID50 (the source's name)

T1 sequence (Q04206 whole entry): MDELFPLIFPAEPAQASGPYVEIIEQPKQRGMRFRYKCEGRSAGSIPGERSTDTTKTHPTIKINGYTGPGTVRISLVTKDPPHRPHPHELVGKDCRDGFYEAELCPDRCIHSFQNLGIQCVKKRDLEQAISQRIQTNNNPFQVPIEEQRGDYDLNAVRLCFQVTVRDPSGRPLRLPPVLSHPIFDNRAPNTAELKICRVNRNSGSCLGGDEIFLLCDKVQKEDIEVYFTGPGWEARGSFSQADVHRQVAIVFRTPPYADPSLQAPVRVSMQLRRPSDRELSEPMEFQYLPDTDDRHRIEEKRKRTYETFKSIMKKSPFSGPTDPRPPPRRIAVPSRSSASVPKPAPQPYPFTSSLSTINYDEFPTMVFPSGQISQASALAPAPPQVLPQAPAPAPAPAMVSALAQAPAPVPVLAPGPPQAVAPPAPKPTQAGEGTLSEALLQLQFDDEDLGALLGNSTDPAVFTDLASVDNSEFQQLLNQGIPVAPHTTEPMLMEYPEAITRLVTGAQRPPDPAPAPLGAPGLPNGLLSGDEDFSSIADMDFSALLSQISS
T1 sequence (P19838 1-433 partner limits assumed): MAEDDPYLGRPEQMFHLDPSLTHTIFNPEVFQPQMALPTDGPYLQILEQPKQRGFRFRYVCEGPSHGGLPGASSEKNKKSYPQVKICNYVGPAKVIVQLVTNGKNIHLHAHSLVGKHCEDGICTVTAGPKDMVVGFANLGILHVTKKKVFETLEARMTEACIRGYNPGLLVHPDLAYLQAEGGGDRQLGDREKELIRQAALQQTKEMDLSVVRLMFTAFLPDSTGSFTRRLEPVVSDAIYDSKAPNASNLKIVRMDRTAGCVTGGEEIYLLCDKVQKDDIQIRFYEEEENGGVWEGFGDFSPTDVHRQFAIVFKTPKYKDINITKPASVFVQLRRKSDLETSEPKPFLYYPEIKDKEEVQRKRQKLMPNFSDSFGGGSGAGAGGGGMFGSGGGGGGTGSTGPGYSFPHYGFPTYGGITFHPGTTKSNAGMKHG

Q: For CC/C=C1/C(=O)C=CC1O[Si](C)(C)C(C)(C)C (stereo not drawn) [CTC-31, 4-tert.butyldimethylsilyloxy-5-(prop-1-ene)-cyclopent-2-ene-1-one], which “inhibition of Sendai virus replication” value [1] is on record?
A: Its value is “potent inhibitors of Sendai virus replication”.

Q: What about the IC50 ([1]; 24 h, read-out: ID50) of the same molecule?
A: The IC50 was 1 µM.

Q: And the “inhibition of NF-κB (NF-κB-DNA complex formation, EMSA)” value (shortened to “inhibition of NF-κB”) (NF-κB [2])?
A: The value was “potent inhibitors of NF-κB”.

Q: What about the “TD100 (concentration 100% toxic to uninfected cells)” value (37RC cells [3]) of the same molecule?
A: Its value is 50 µM.

Q: For CC(C)(C)[Si](C)(C)OC1C=CC(=O)/C1=C/c1ccccn1 (stereo not drawn) [CTC-32, 4-tert.butyldimethylsilyloxy-5-[methylene-(2-pyridyl)]-cyclopent-2-ene-1-one], which IC50 ([1]; 24 h, read-out: ID50) is on record?
A: Its IC50 is 2 µM.

Q: What about the “TD100 (concentration 100% toxic to uninfected cells)” value (37RC cells [3]) of the same molecule?
A: The value was 10 µM.

Q: With CC(C)(C)[Si](C)(C)OC1C=CC(=O)/C1=C/c1ccccc1 (stereo not drawn) [CTC-33, 5-benzylidene-4-[(tert-butyldimethylsilyl)oxy]-2-cyclopentene-1-one] as the molecule, how does the “inhibition of Sendai virus replication” value [1] read?
A: The value was “potent inhibitors of Sendai virus replication”.

Q: And the IC50 [1, 8]?
A: The IC50 was 1.5 µM.

Q: What about the “inhibition of NF-κB” value (NF-κB [2]) of the same molecule?
A: Its value is “potent inhibitors of NF-κB”.

Q: What about the “TD100 (concentration 100% toxic to uninfected cells)” value (37RC cells [3]) of the same molecule?
A: Its value is 50 µM.

Q: Which “inhibition of Sendai virus replication” value [1] does the source give for CCCCCCC/C=C1/C(=O)C=CC1O[Si](C)(C)C(C)(C)C (stereo not drawn) [CTC-34, 4-tert.butyldimethylsilyloxy-5-(oct-1-ene)-cyclopent-2-ene-1-one] here?
A: The value was “potent inhibitors of Sendai virus replication”.

Q: And the IC50 ([1]; 24 h, read-out: ID50)?
A: The IC50 was 3 µM.

Q: And the “inhibition of NF-κB” value (NF-κB [2])?
A: Its value is “potent inhibitors of NF-κB”.

Q: And the “TD100 (concentration 100% toxic to uninfected cells)” value (37RC cells [3])?
A: The value was 50 µM.

Q: With CC(C)/C=C1\C(=O)C=CC1O[Si](C)(C)C(C)(C)C (stereo not drawn) [CTC-35] as the molecule, how does the IC50 [4] read?
A: The IC50 was 1.51 µM.

Q: And the “inhibition of Sendai virus replication” value [1]?
A: Its value is “potent inhibitors of Sendai virus replication”.

Q: What about the IC50 [1, 8] of the same molecule?
A: Its IC50 is 0.4 µM.

Q: And the “LD50 (Lethal dose/concentration 50%)” value (37RC cells [5])?
A: The value was 30 µM.

Q: What about the “LD50 (Lethal dose/concentration 50%)” value (A549 cells) of the same molecule?
A: The value was 90 µM.

Q: And the “inhibition of NF-κB” value (NF-κB [2])?
A: The value was “potent inhibitors of NF-κB”.

Q: What about the “TD100 (concentration 100% toxic to uninfected cells)” value (37RC cells [3]) of the same molecule?
A: Its value is 50 µM.

Q: Which “inhibition of NF-κB” value (NF-κB [2]) does the source give for CC(C)/C=C1/C(=O)C=CC1O[Si](C)(C)C(C)(C)C (stereo not drawn) [CTC-36] here?
A: Its value is “potent inhibitors of NF-κB”.

Q: Which “inhibition of Sendai virus replication” value [1] does the source give for CCC/C=C1/C(=O)C=CC1O[Si](C)(C)C(C)(C)C (stereo not drawn) [CTC-45, butyldimethylsilyloxy-5-[but-1-ene]-cyclopent-2-ene-1-one] here?
A: The value was “potent inhibitors of Sendai virus replication”.

Q: And the IC50 ([1]; 24 h, read-out: ID50)?
A: The IC50 was 3 µM.

Q: And the “inhibition of NF-κB” value (NF-κB [2])?
A: Its value is “potent inhibitors of NF-κB”.

Q: What about the “TD100 (concentration 100% toxic to uninfected cells)” value (37RC cells [3]) of the same molecule?
A: Its value is 50 µM.

Q: Which “effect on blood pressure” value [6] does the source give for CCCCC[C@H](O)/C=C/[C@H]1C=CC(=O)[C@@H]1CCCCCCC(=O)O [Prostaglandin A1] here?
A: The value was “dose-dependant falls in blood pressure”.

Q: Which “effect on blood pressure” value [6] does the source give for CCCCC[C@H](O)/C=C/[C@H]1[C@H](O)CC(=O)[C@@H]1CCCCCCC(=O)O [Prostaglandin E1] here?
A: The value was “dose-dependant falls in blood pressure”.

Q: Which “block of NF-κB activation by chemical or physiological inducers” value (NF-κB [7]) does the source give for O=C1C=CCC1 [cyclopent-2-en-1-one] here?
A: Its value is “able to block NF-κB activation”.

Q: And the “activation of HSF1” value (HSF1)?
A: The value was “able to activate HSF1”.
